Assay results from patent publication US20260258000A1, “THYMIDYLATE SYNTHASE INHIBITORS AND USES THEREOF” (University of Florida Research Foundation, Incorporated, priority 2021, published 2026).
Entries after “also recorded” stand apart in the source; their conditions may differ. One block for each compound: values may come before it.

Assays:
[1] = molecular target: T1, human thymidylate synthase (hTS) (Homo sapiens, UniProt P04818); test: Tritium based TS catalytic activity assay; type: biochemical; conditions: for TS activity (conversion of dUMP): drug 250 μM, 10 μg/mL bacterially expressed TS protein (FIG. 1B); for inhibition of TS catalytic activity, 19-S series library screen: 250 uM (FIG. 4A); for TS inhibition at decreasing drug concentrations: compared with Pem and MTX controls (FIG. 4C)
T1 construct: 6xHis (N); made in house; host or cells: E. coli BL21 (DE3)
T1 sequence (P04818 whole entry): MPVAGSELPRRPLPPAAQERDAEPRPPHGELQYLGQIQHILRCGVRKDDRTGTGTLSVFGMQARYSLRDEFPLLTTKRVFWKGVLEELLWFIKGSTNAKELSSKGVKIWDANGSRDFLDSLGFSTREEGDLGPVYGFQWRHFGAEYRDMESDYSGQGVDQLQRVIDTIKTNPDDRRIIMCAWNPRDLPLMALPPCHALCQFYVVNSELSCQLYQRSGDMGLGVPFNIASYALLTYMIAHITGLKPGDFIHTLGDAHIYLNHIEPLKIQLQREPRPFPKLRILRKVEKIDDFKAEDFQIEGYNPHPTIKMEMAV
Procedure: The catalytic activity of TS was determined by measuring the release of [31] from [5-3H]dUMP (ViTrax, VT122) resulting from the conversion of dUMP to dTMP as previously described12,33. […] Reactions were performed in 50 mM KH2PO4 (Sigma Aldrich, P0662) at pH 7.2 using 2 μg of purified human TS. Reactions were performed in a final volume of 200 μL with 100 mM β-mercaptoethanol (Sigma Aldrich, M7522), 40 μM dUMP (Sigma Aldrich, D3876), 100 μM 5,10-mTHF, and the [5-3H]dUMP tracer (ViTrax, VT122) accounting for 0.06% of the final dUMP concentration in the reaction. […] Reactions were initiated by the addition of the dUMP substrate and 5,10-mTHF cofactor, then incubated at 37° C. for 30 minutes. […] Reactions were terminated by the addition of 100 μL of ice-cold 20% trichloroacetic acid (Sigma Aldrich, T6399), then excess [5-31-]dUMP was removed by the addition of 200 μL of an albumin-coated activated charcoal solution. The albumin-coated activated charcoal solution was prepared by mixing 10 g of acid-washed activated dextran coated charcoal (Sigma Aldrich, C6241) with 2.5 g of bovine albumin (Sigma Aldrich, A1933) in 100 mL of H2O. The suspension was incubated at room temperature for 30 minutes and then centrifuged for 30 minutes at 10,000×g. […] For all experiments, positive control reactions were performed with no drug representing 100% TS activity, and negative control reactions were performed with no TS enzyme or no 5,10-mTHF substrate representing 0% TS activity. All assays were performed in biological duplicate and technical duplicate. Results were analyzed using GraphPad Prism 8.

MIA PaCa-2 cells = test: Cell viability (MTS) assay, MIA PaCa-2; type: cell-based; conditions: Homo sapiens; MIA PaCa-2, 72-hour treatment, highest concentration 350 μM (FIG. 4E)
Procedure: (§1) To prepare lysates, 0.5×10^6 PA NC-1 cells were seeded in 100 mm dishes in 10 ml DMEM High glucose and 24 hours later, 5-FU (Sigma) or 19-S were added at the specified concentrations. Cells were harvested after 72 hours and cell pellets were stored at −80° C. For GI50 determination, 3000 MIA PaCa-2 cells. […] After 72 hours, cell viability was assessed by reduction of MTS ((3-4,5-dimethylthiazol-2-yl)-5-(3-carboxymethoxyphenol)-2-(4-sulfophenyl)-2H-tetrazolium) using Cell Titer 96 R Aqueous One Solution Cell Proliferation Assay Kit (Promega), following manufacturer's recommendations. Chemiluminescent output (integration time 1000 ms) was measured on a SpectraMax M3® (Molecular devices). Data were normalized to max/minutes and plotted in GraphPad Prism for GI50 determination. Chemical synthesis details, including characterization of each compound, can be found in the supporting information document associated with this publication.

[2] = tested on: Luc-PANC-1 xenograft tumors; test: Luc-PANC-1 subcutaneous xenograft tumor model; type: in vivo, NSG mice; conditions: 25 mg/kg oral gavage
Procedure: Luc-PANC-1 (5×106) and Luc-CM (0.5×106) cells were resuspended in 200 ul of PBS and injected subcutaneously (SQ) or intraperitonially (IP) to 6-8-week-old NSG mice respectively. Tumor bearing mice were imaged using Xenogen IVIS® Lumina Bioluminescence Imaging System (Perkin Elmer) every week after cell injection. At 4 weeks, animals were randomized based on slope of luciferase signal and treatment was initiated. […] For all animals body weight was recorded weekly and Luc-PANC-1 tumor volume was measured weekly with a caliper. For scheduled sacrifice experiments, animals were euthanized after 4 weeks of treatment. […] Harvested tumors were excised and weighted, and fixed in alcoholic formalin (67.5% Ethanol, 10% Formaldehyde 37%, 22.5% water) for pathology analysis. Tumor volume was calculated as [volume=0.52 (length×width2)].
From this stock, the exact volume needed for daily in vivo delivery was then formulated into 95% corn oil (Mazola) at 2 different concentrations: 1.25 mg/mi (formulation 1) and 3.125 mg/ml (formulation 2). To determine the volume of solution administered to the mice, 200 μl (maximum volume to be delivered in mice via IP or oral gavage) was divided by 25 g of mouse body weight. Therefore, 8 μl of formulation 1 or 2 multiplied by the weight of the mice were used to reach a dose of 10 or 25 mg/kg of body weight, respectively.
Prior to bioluminescence imaging the region where tumors were located was shaved. Mice were then anesthetized with 2.5% isoflurane in 02 then administered the D-luciferin substrate (150 mg/kg in PBS) by IP injection. Following the injection of the D-luciferin substrate mice were imaged using the Xenogen IVIS® Lumina Bioluminescence Imaging System (Perkin Elmer). The peak of luciferase photon flux was recorded 6 minutes after injection of the D-luciferin substrate. The total photon flux was analyzed and restricted to tumor ROI (region of interest) using Living Image v2.60.1 software (Imaging Systems).

[3] = Maximum tolerated dose (MTD) study; type: in vivo
Description: After 3 treatment cycles, animals rested (no treatment) for one more week before euthanasia. Body weight and physical status of all mice were closely monitored. Tissues were collected and fixed in alcoholic formalin to test for toxicity.

DHFR = molecular target: T2, DHFR (Homo sapiens, UniProt P00374); test: Absorbance-based DHFR activity assay; type: biochemical; conditions: for DHFR inhibition at reduced inhibitor concentrations: compared with Pem and MTX controls (FIG. 4D)
T2 construct: purchased Sigma D6566
T2 sequence (P00374 1-187): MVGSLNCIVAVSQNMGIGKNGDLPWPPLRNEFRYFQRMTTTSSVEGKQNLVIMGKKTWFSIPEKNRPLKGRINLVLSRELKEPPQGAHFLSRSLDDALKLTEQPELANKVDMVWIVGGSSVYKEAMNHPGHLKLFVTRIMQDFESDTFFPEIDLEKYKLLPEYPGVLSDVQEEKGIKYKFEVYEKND
Procedure: 6 μL NADPH solution and 5 μL of dihydrofolic acid (DHFR substrate) (Sigma, D7006).

human TS = molecular target: T3, human TS (Homo sapiens, UniProt P04818); test: Competitive drug displacement assay (tritium TS assay); type: biochemical; conditions: TS pre-incubated with drug; for dUMP conversion with increasing 5,10-mTHF concentration (drug displacement): 5,10-mTHF up to 5×; for dUMP conversion with increasing dUMP concentration (drug displacement): dUMP up to 5×
T3 construct: 6xHis (N); made in house; host or cells: E. coli BL21 (DE3)
T3 sequence (P04818 whole entry): as the sequence (P04818 whole entry) above
Procedure: For these experiments the TS protein was first incubated with each drug, the reaction was then initiated by addition of 5,10-mTHF and dUMP using different concentrations of either 5,10-mTHF or dUMP to change the substrate:drug ratio. If there was competition between one of the substrates and the drug for the same binding site, increasing the substrate concentration will displace more of the pre-bound drug and shift the equilibrium towards the enzyme: substrate complex, thus allowing the conversion of dUMP to proceed (FIG. 5A).
The competitive drug displacement assay utilized the standard reaction conditions for the tritium based TS catalytic activity assay including 40 μM dUMP (Sigma Aldrich, D3876) with the [5-3H]dUMP tracer (ViTrax, VT122) accounting for 0.06% of the final dUMP concentration and 100 μM 5,10-methylene tetrahydrofolate (defined as 1× dUMP and 1×5,10-mTHF). Concentrations of total dUMP and 5,10-mTHF were then changed relative to these 1× concentrations to concisely indicate the changes in either the substrate or cofactor concentration. […] The remaining components in each 200 μL reaction were consistent in all reactions and included 2 μg of purified human TS in 50 mM KH2PO4 (Sigma Aldrich, P0662) and 100 mM β-mercaptoethanol (Sigma Aldrich, M7522).

CM cells = test: Cell viability (MTS) assay, CM; type: cell-based; conditions: 72 hour drug incubation (FIG. 1C)
BON cells = test: Cell viability (MTS) assay, BON; type: cell-based; conditions: 72 hour drug incubation (FIG. 1C)
[4] = tested on: TS protein expression in PANC-1 cells; test: Immunoblot analysis of TS expression in PANC-1 cells; type: cell-based; conditions: PANC-1 cells treated 72 hours (FIG. 1D)
Procedure: as §1, with “Data were normalized to max/minutes and plotted in GraphPad Prism for GI50 determination. Chemical synthesis details, including characterization of each compound, can be found in the supporting information document associated with this publication.” left out
Protein lysates were generated using RIPA buffer (Santa Cruz) for 20 minutes on ice, followed by 15 minutes centrifugation at 13,000 rpm, at 4° C. […] Protein was quantified using Bradford Assay (BioRad) following manufacturer's recommendations, standard curves were generated with bovine serum albumin (Fisher).
20 μg of total protein lysate was loaded per lane of 10% Tris Glycine Gel (Invitrogen). […] Signal was detected using West Pico Plus chemiluminescent substrate (Thermo Scientific) following manufacturer's recommendations. […] For protein level quantification relative to loading control, densitometric analysis was performed by ImageJ software.

Compound: O=c1[nH]c(=O)n([C@@H]2O[C@H](CO)[C@@H](O)[C@H]2O)cc1F [FUrd, 5-fluorouridine, reference compound]
TS activity (conversion of dUMP) [1]: inactive

Compound: CCc1nc(N)nc(N)c1-c1ccc(N(C)Cc2ccc3c(c2)OCO3)c([N+](=O)[O-])c1 [Compound 19-S7]
inhibition of TS catalytic activity, 19-S series library screen [1]: inhibited TS activity
TS inhibition at decreasing drug concentrations [1]: greater TS inhibition than both MTX and Pen; also recorded: both strong TS and DHFR inhibition
GI50 (MIA PaCa-2 cells): 0.2 to 0.84 µM
adverse effects / body weight ([2]; 4 cycles): did not show adverse effects or declines in body weight
tumor progression (photon flux, tumor volume, excised tumor mass) ([2]; 4 cycles (FIGS. 7A-7H)): inhibited tumor progression
mortality ([3]; 50 mg/kg PO, n=3 (FIG. 16B)): found dead after 12th (n=1) and 15th (n=2) dose
MTD ([3]; PO, NSG mice (FIGS. 16A-16B)): 25 mg/kg
DHFR inhibition at reduced inhibitor concentrations (DHFR): both strong TS and DHFR inhibition
dUMP conversion with increasing 5,10-mTHF concentration (drug displacement) (human TS): increased the amount of dUMP conversion
dUMP conversion with increasing dUMP concentration (drug displacement) (human TS): the amount of dUMP conversion did not increase

Compound: O=c1[nH]cc(F)c(=O)[nH]1 [Compound 5-FU, 5-fluorouracil, reference compound]
GI50 (CM cells): 14.8 µM
IC50 (BON cells): 7.1 µM
TS protein expression (steady-state TS levels) [4]: induced TS expression

Compound: Nc1nc2[nH]cc(CCc3ccc(C(=O)N[C@@H](CCC(=O)O)C(=O)O)cc3)c2c(=O)[nH]1 [Pem, pemetrexed, reference compound]
TS inhibition at decreasing drug concentrations [1]: greater TS inhibition than the MTX antifolate
GI50 (MIA PaCa-2 cells): > 350 µM
DHFR inhibition at reduced inhibitor concentrations (DHFR): less effective against DHFR
dUMP conversion with increasing 5,10-mTHF concentration (drug displacement) (human TS): increased the dUMP conversion
dUMP conversion with increasing dUMP concentration (drug displacement) (human TS): did not increase dUMP conversion

Further lines, with some results ahead:

inhibition of DHFR activity, 19-S series library screen (DHFR; 1 μM (FIG. 4B)): exception
Compound: CCc1nc(N)nc(N)c1-c1ccc(NCCOCCOCCN)c([N+](=O)[O-])c1 [Compound 19-S10]

inhibition of TS catalytic activity, 19-S series library screen [1]: inhibited TS activity
TS inhibition at decreasing drug concentrations ([1]; listed as 19-85): both strong TS and DHFR inhibition
GI50 (MIA PaCa-2 cells): 0.2 to 0.84 µM
DHFR inhibition at reduced inhibitor concentrations (DHFR): both strong TS and DHFR inhibition
dUMP conversion with increasing 5,10-mTHF concentration (drug displacement) (human TS): increased the amount of dUMP conversion
Compound: CCc1nc(N)nc(N)c1-c1ccc(N(C)Cc2ccc(OC)cc2)c([N+](=O)[O-])c1 [Compound 19-S5]
TS inhibition at decreasing drug concentrations ([1]; listed as 19-55): greater TS inhibition than both MTX and Pen
dUMP conversion with increasing dUMP concentration (drug displacement) (human TS): the amount of dUMP conversion did not increase

GI50 (MIA PaCa-2 cells): > 350 µM
Compound: CN(Cc1cnc2nc(N)nc(N)c2n1)c1ccc(C(=O)N[C@@H](CCC(=O)O)C(=O)O)cc1 [MTX, methotrexate, reference compound]

TS activity (conversion of dUMP) [1]: reduced conversion of dUMP
dUMP conversion with increasing dUMP concentration (drug displacement) (human TS): did not show drug displacement
Compound: O=c1[nH]c(=O)n([C@H]2C[C@H](O)[C@@H](CO)O2)cc1F [FdUrd, 5-fluoro-2′-deoxyuridine, reference compound]
